What was measured:
Large crabgrass [1] = assay: Upland pot test, pre-/post-emergence spray, visual rating; type: in vivo, large crabgrass (DIGSA); conditions: pre-emergence application, 0.06~0.12 kg/ha
Foxtail = assay: as above; type: in vivo, green foxtail (SETVI); conditions: 2 weeks after spray, 0-10 scale (10=completely killed)
Text: (§1) To a rectangular plastic pot having a surface area of 300 cm^2, mixed soils including blend bed soil (Boonong, Horticultural Bed Soil No. 3) and sandy loam soil were filled (mixing ratio, 1:1). Seeds of the eight different types of weeds including gramineous weed such as barnyardgrass, large crabgrass, green foxtail, fall panicum, and broadleaf weed such as common cocklebur, velvetleaf, Indian joint-vetch, and morningglory were sown. To the other pot containing the same soil mixture, seeds of the five different types of crops including corn, soybean, cotton, wheat and rice were sown. Pots were kept in a greenhouse of which temperature was maintained at 25˜30° C. (day) or 15˜25° C. (night), and regularly watered.
(§2) After fourteen days and when the crops and the weeds reached their three-leaf stage, the other set of a crop pot and a weed pot were prepared by the same method as described above. Then, “test substance” was sprayed thereto. In this case, spray treatment to the plants after they have grown for two weeks corresponded to post-emergence treatment while spray treatment to the seeds right after the sowing corresponded to pre-emergence treatment. Spray was carried out by using a track sprayer (R&D Sprayer, USA) equipped with a Teejet 8002 nozzle (Spraying Systems Co., USA). Spray volume was adjusted to 300 L/ha. The spray solution was prepared by dissolving the “test substance” in acetone and adding the same volume of 0.2% (v/v) Tween 20 aqueous solution. Dosage of the test substance was 500, 250, 125, 62.5 or 31.3 g/ha. Two weeks after the spray of the test substance, efficacy and phytotoxic effect to the crops and the weeds were visually measured based on a 0 to 10 scale (0: no efficacy, 10: completely killed).

Corn = assay: as above; type: in vivo, corn (ZEAMX); conditions: for Visual measurement: Crops, Corn: 2 weeks after spray, 0-10 scale (10=completely killed)
Text: as §1, §2

turfgrasses = assay: Example 3-1, turfgrasses as a group; type: in vivo; conditions: 2 kg/ha or below
Text: Commercially available sod mats of zoysiagrass and bentgrass, Kentucky bluegrass, and perennial ryegrass were purchased. After cutting each turf sod mat in a size of 10 cm×20 cm, it was transplanted to a rectangular plastic pot having a surface area of 300 cm^2 wherein mixed soils including blend of a bed soil (Boonong, Horticultural Nursery Soil No. 3) and sandy loam soil were filled (mixing ratio, 1:1). After transplanting, the grass was mowed (0.5˜1.0 cm in height) once a week, and kept for one month in a greenhouse maintained at 25˜30° C. (day) or 15˜25° C. (night). Then three strips of 1 cm width were removed by excision with a scissor. The open space was filled with a new soil, and seeds of large crabgrass, annual bluegrass, or goosegrass were sown. The pots were kept in a greenhouse. When the said weeds were grown up to the 3 leaf stage, another set was prepared in the same method. The first set represented post-emergence (POST) and the second set represented pre-emergence (PRE) stages of the weeds (large crabgrass, annual bluegrass, goosegrass). Then the test compound was applied at 0.25, 0.5. 1.0, 2.0, and 4.0 kg/ha. […] Four weeks after the spray of the test substance, phytotoxicity to the turfgrass and herbicidal activity to the said weeds were visually evaluated based on 0 to 100 scale (0: no phytotoxic effect, 100: completely killed). […]

Large crabgrass [2] = assay: Upland pot test, pre-/post-emergence spray, visual rating; type: in vivo, large crabgrass (DIGSA); conditions: 2 weeks after spray, 0-10 scale (10=completely killed)
Text: as §1, §2

Wheat = assay: as above; type: in vivo, wheat (TRIAZ); conditions: for Visual measurement: Crops, Wheat: 2 weeks after spray, 0-10 scale (10=completely killed)
Text: as §1, §2

Fall panicum = assay: as above; type: in vivo, fall panicum (PANDI); conditions: 2 weeks after spray, 0-10 scale (10=completely killed)
Text: as §1, §2

[3] = post-emergence foliar spray at three leaf stage, 31.2 g/ha
[4] = post-emergence foliar spray at three leaf stage, 62.5 g/ha
[5] = post-emergence foliar spray at three leaf stage, 125 g/ha
[6] = post-emergence foliar spray at three leaf stage, 250 g/ha
[7] = post-emergence foliar spray at three leaf stage, 500 g/ha
[8] = pre-emergence soil treatment, 31.2 g/ha
[9] = pre-emergence soil treatment, 62.5 g/ha
[10] = pre-emergence soil treatment, 125 g/ha
[11] = pre-emergence soil treatment, 250 g/ha
[12] = pre-emergence soil treatment, 500 g/ha

Cc1ccsc1C1=NOC(C)(COCc2c(F)cccc2F)C1 (stereo not drawn) [test substance, 5-(2,6-difluorobenzyl)oxymethyl-5-methyl-3-(4-methylthiophen-5-yl)-1,2-isoxazoline]
10: Visual measurement: Gramineous weed, Foxtail (Foxtail; [12]) | Visual measurement: Gramineous weed, Large crabgrass (Large crabgrass [2]; [11]) | Visual measurement: Gramineous weed, Large crabgrass (Large crabgrass [2]; [12]) | Visual measurement: Gramineous weed, Fall panicum (Fall panicum; [12])
2: Visual measurement: Gramineous weed, Foxtail (Foxtail; [5]) | Visual measurement: Crops, Corn (Corn; [4]) | Visual measurement: Crops, Corn (Corn; [5])
1: Visual measurement: Gramineous weed, Foxtail (Foxtail; [4]) | Visual measurement: Gramineous weed, Foxtail (Foxtail; [8]) | Visual measurement: Gramineous weed, Large crabgrass (Large crabgrass [2]; [3]) | Visual measurement: Gramineous weed, Large crabgrass (Large crabgrass [2]; [8]) | Visual measurement: Gramineous weed, Fall panicum (Fall panicum; [4])
9: Visual measurement: Gramineous weed, Foxtail (Foxtail; [7]) | Visual measurement: Gramineous weed, Foxtail (Foxtail; [10]) | Visual measurement: Gramineous weed, Foxtail (Foxtail; [11]) | Visual measurement: Gramineous weed, Large crabgrass (Large crabgrass [2]; [7]) | Visual measurement: Gramineous weed, Large crabgrass (Large crabgrass [2]; [9]) | Visual measurement: Gramineous weed, Large crabgrass (Large crabgrass [2]; [10]) | Visual measurement: Gramineous weed, Fall panicum (Fall panicum; [10]) | Visual measurement: Gramineous weed, Fall panicum (Fall panicum; [11])
6: Visual measurement: Gramineous weed, Large crabgrass (Large crabgrass [2]; [6]) | Visual measurement: Gramineous weed, Fall panicum (Fall panicum; [6])
not safe: Safety to corn (in words) (Corn; post-emergence treatment)
did not show any visible injury: Visible injury to turfgrasses (in words) (turfgrasses)
8: Visual measurement: Crops, Corn (Corn; [7]) | Visual measurement: Gramineous weed, Fall panicum (Fall panicum; [7]) | Visual measurement: Gramineous weed, Fall panicum (Fall panicum; [9])
safe: Safety to wheat (in words) (Wheat; post-emergence treatment)
3: Visual measurement: Gramineous weed, Foxtail (Foxtail; [9]) | Visual measurement: Crops, Corn (Corn; [6]) | Visual measurement: Gramineous weed, Large crabgrass (Large crabgrass [2]; [4]) | Visual measurement: Gramineous weed, Fall panicum (Fall panicum; [5])
almost completely: Control of large crabgrass (in words) (Large crabgrass [1])
0: Visual measurement: Gramineous weed, Foxtail (Foxtail; [3]) | Visual measurement: Crops, Corn (Corn; [3]) | Visual measurement: Crops, Corn (Corn; [8]) | Visual measurement: Crops, Corn (Corn; [9]) | Visual measurement: Crops, Corn (Corn; [10]) | Visual measurement: Crops, Corn (Corn; [11]) | Visual measurement: Crops, Corn (Corn; [12]) | Visual measurement: Crops, Wheat (Wheat; [3]) | Visual measurement: Crops, Wheat (Wheat; [4]) | Visual measurement: Crops, Wheat (Wheat; [5]) | Visual measurement: Crops, Wheat (Wheat; [6]) | Visual measurement: Crops, Wheat (Wheat; [7]) | Visual measurement: Crops, Wheat (Wheat; [8]) | Visual measurement: Crops, Wheat (Wheat; [9]) | Visual measurement: Crops, Wheat (Wheat; [10]) | Visual measurement: Crops, Wheat (Wheat; [11]) | Visual measurement: Crops, Wheat (Wheat; [12]) | Visual measurement: Gramineous weed, Fall panicum (Fall panicum; [3])
5: Visual measurement: Gramineous weed, Foxtail (Foxtail; [6]) | Visual measurement: Gramineous weed, Large crabgrass (Large crabgrass [2]; [5]) | Visual measurement: Gramineous weed, Fall panicum (Fall panicum; [8])
